Consider three molecules from patent publication US11304943B2, “Combination for use in the treatment of lung cancer” (LDN Pharma Limited, priority 2017, dated 2022).

One assay deals with A549 (lung cancer) cells. Kind of assay: Cell counting with trypan blue (cell number / cytostasis and cell viability) in A549 cells. The class given is cell-based. On the procedure:
The cytostatic effect upon administration of 6-β-naltrexol (6BN) and naltrexone (NTX) to A549 (lung cancer) and HCT116 (colorectal cancer) cells was studied in vitro. Firstly, A549 and HCT116 cells were seeded into 6-well plates at a density of 2×10^5/well and left to adhere overnight. Cells were then cultured with 0.001 μM, 0.01 μM, 0.1 μM or 1 μM of 6BN or NTX for 48 hours. Experiments were performed alongside a control where cells were not administered with 6-β-naltrexol or naltrexone (FIG. 1).
The viability of cells was then measured by cell counting using trypan blue as a way of discriminating live and dead cells. Cytostasis was indicated by a reduction in cell number and no associated reduction in cell viability.
Next, the effect of co-administration of low dose (10 nM) or high dose (10 μM) 6-β-naltrexol or naltrexone (NTX) alongside calcitriol was investigated. The cytostatic and cytotoxic effect was investigated in both A549 and HCT116 cells. A549 and HCT116 cells were seeded into 6-well plates at a density of 2×10^5/well and left to adhere overnight. The following day low or high dose 6BN or NTX was added to cells in isolation or in combination with calcitriol and incubated for 48 hours. A549 cells were co-administered with 10 nM calcitriol, whereas HCCT116 cells were co-administered 10 nM calcitriol.
Cell viability and cytostasis were then determined as described in example 1.

Assay [1] deals with HCT116 (colorectal cancer) cells. Kind of assay: Cell counting with trypan blue (cell number / cytostasis and cell viability) in HCT116 cells. The assay is classed as cell-based. The conditions noted are these: 48 hours.

As to `C=C1/C(=C\C=C2/CCC[C@]3(C)[C@@H]([C@H](C)CCCC(C)(C)O)CC[C@@H]23)C[C@@H](O)C[C@@H]1O` [Calcitriol, calcitriol, reference compound], in the assay with A549 (lung cancer) cells (lung cancer cells, calcitriol administered in isolation), the “cytostatic effect of calcitriol in isolation” value was “no independent cytostatic effect”.

On to `Oc1ccc2c3c1OC1[C@H](O)CC[C@@]4(O)[C@@H](C2)N(CC2CC2)CC[C@]314` (stereo partly drawn) [6-β-naltrexol, 17-(Cyclopropylmethyl)-4,5-epoxymorphinan-3,6beta,14-triol], for which the “cytostasis (cell number) upon co-administration with calcitriol” value was “significant reduction in cytostasis” in the assay on A549 (lung cancer) cells (A549 cells, 10 nM 6BN co-administered with calcitriol, 48 hours); “not observed” in the assay with A549 (lung cancer) cells (A549 cells, 10 μM 6BN co-administered with calcitriol, 48 hours); “not observed” in assay [1] (HCT116 cells, 10 nM 6BN co-administered with calcitriol). Moreover, the cell viability result in the assay on A549 (lung cancer) cells (A549 cells, 0.001-1 μM, 48 hours, trypan blue) was “No reduction in cell viability”; in assay [1] (HCT116 cells, 0.001-1 μM, trypan blue), “No reduction in cell viability”. Also, the “cytostasis (cell number)” value is recorded as “selective reduction in cytotostasis in lung cancer cells” in the assay with A549 (lung cancer) cells (A549 lung cancer cells, 0.001-1 μM, 48 hours, single agent) and “less pronounced decrease in cytotostasis” in assay [1] (HCT116 colorectal cancer cells, 0.001-1 μM, single agent, effect at higher concentrations).

As to `O=C1CC[C@@]2(O)[C@H]3Cc4ccc(O)c5c4[C@@]2(CCN3CC2CC2)[C@H]1O5` [NTX, naltrexone, reference compound], in assay [1] (HCT116 cells, 10 nM NTX with 100 nM calcitriol), the “cell viability upon combination with calcitriol” value is given as “reduces the viability”.
